Source: patent publication US20210228825A1, “METHODS FOR DIAGNOSING BRUGADA SYNDROME USING AN AEROSOL” (InCarda Therapeutics, Inc., priority 2018, published 2021)
Where two headings read alike, the source gives them in different places.

Experiment: Pharmacokinetics analysis in human clinical trial FLE-001, inhalation versus intravenous flecainide, venous plasma
Format: in vivo
Details: healthy adult volunteers, read-out: Peak plasma concentration of flecainide (Cmax)
Experimental: This example describes pharmacokinetics (PK) analysis performed during a human clinical trial (FLE-001) in which inhalation administration of flecainide was tested for safety and compared against intravenous administration of flecainide.
This was an open label non-randomized crossover in a cohort of 6 evaluable healthy adult volunteers. This part of the study consisted of two periods with each subject receiving a total of 2 doses of flecainide, one dose in each period. In Period 1, 3 subjects received flecainide acetate solution by inhalation at the dose level of 30 mg estimated lung total dose (eTLD). and 3 subjects received a single dose of 2 mg/kg (or 150 mg, whichever is less) via a 10 min intravenous (IV) infusion of flecainide (Tambocor™ Injection; approved and used in clinical practice in Australia). In Period 2, the subjects who received flecainide inhalation solution in Period 1 now received a single dose of IV flecainide (2 mg/kg or 150 mg, whichever is less, via a 10 min infusion), while the subjects who received IV flecainide in Period 1 now received flecainide inhalation solution (30 mg eTLD). […] The interpretation is that there was no carry over effect of treatment or other changes in the subjects' vital signs and ECG intervals between the two periods. […]

Which Cmax (intravenous 2 mg/kg (or 150 mg, whichever is less), 10 min infusion, mean±SD) does the source give for O=C(NCC1CCCCN1)c1cc(OCC(F)(F)F)ccc1OCC(F)(F)F (centres unmarked) [flecainide] here?
The Cmax was 749 ± 308 ng/mL.

What about the Cmax (inhaled, inhalation of flecainide acetate solution, 30 mg eTLD) of the same molecule?
The Cmax was 120 ng/mL.
